Laboratory results reported in patent US6335339B1, “Triazine antiviral compounds” (Scriptgen Pharmaceuticals, Inc., priority 1998, dated 2002).

Tested on: HBV εRNA
Assay: εRNA/oligonucleotide hybridization inhibition assay with rRNA competitor
Format: binding, Hepatitis B virus
Conditions: for IC50 / HBV + rRNA IC50 (μM): radiolabeled εRNA, 60-fold excess rRNA competitor; for Specificity: ratio RRE+rRNA IC50/εRNA+rRNA IC50, max = inactive in RRE assay
Outline: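 Inhibition of hybridization between 25 nM [32P]-εRNA and 100 nM biotinylated complementary oligonucleotide (50 mM Tris-HCl pH 7.5, 200 mM KCl, 5 mM MgCl2, 60 min, 25 °C), hybrids captured by streptavidin filter and counted. Titrations 0.1-200 μM with 60-fold excess rRNA; specificity = RRE+rRNA IC50/εRNA+rRNA IC50.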

Compound	IC50 [µM]	Specificity	HBV + rRNA IC50 (μM)
CC(=NNc1nc(Nc2ccccc2)nc(N2CCCC2)n1)c1ccc([N+](=O)[O-])cc1 [Compound 183]	47.8	max.	
Cc1ccc(Nc2nc(NCc3ccccc3)nc(NN=Cc3ccc(F)cc3F)n2)cc1C [Compound 191]	87	max.	
CN(C)c1nc(NCc2ccccc2)nc(NCc2cccs2)n1 [Compound 192]	235	max.	
COc1c(C=NNc2nc(N3CCCC3)nc(N3CCOCC3)n2)cccc1[N+](=O)[O-] [Compound 193]	28	max.	
Cc1ccc(Nc2nc(NCc3ccccc3)nc(Nc3ccc([N+](=O)[O-])cc3)n2)cc1C [Compound 194]	34	max.	
COc1ccccc1C=NNc1nc(NCc2ccccc2)nc(Nc2ccccc2)n1 [Compound 195]	28.2	max.	
Cc1ccc(Nc2nc(NN=Cc3ccc(Cl)cc3)nc(N3CCOCC3)n2)cc1Cl [Compound 196]	32.7	max.	
COc1ccc(Nc2nc(NN=Cc3cc(Br)cc(Br)c3O)nc(N3CCOCC3)n2)cc1 [Compound 200]	12.1	max.	
Fc1cccc(C=NNc2nc(Nc3ccccc3)nc(N3CCCC3)n2)c1 [Compound 201]	53	max.	
CCN(CC)c1nc(Nc2cccc(Br)c2)nc(Nc2cc(C)ccc2C)n1 [Compound 202]	68	max.	
O=C(CSc1nc(SCC(=O)Nc2ccccc2C(F)(F)F)nc(SCC(=O)Nc2ccccc2C(F)(F)F)n1)Nc1ccccc1C(F)(F)F [Compound 212]	23.1	max.	
C(=Cc1ccccc1)C=NNc1nc(Nc2ccccc2)nc(N2CCCC2)n1 [Compound 213]	15.6	33.3	
CCN(CC)c1nc(NN=Cc2ccc(Cl)c([N+](=O)[O-])c2)nc(Nc2cc(C)ccc2C)n1 [Compound 214]	42.6	max.	
Clc1ccc(C=NNc2nc(Nc3ccccc3)nc(N3CCCC3)n2)cc1 [Compound 218]	4.8	12.0	
Cc1ccc(Nc2nc(NCc3ccccc3)nc(NN=Cc3cc(Br)cc(Br)c3O)n2)cc1C [Compound 219]			inactive
O=C(NNc1nc(Nc2ccccc2)nc(Nc2cccc(C(F)(F)F)c2)n1)c1cccc(Br)c1 [Compound 220]	27.6	33.3	
CN(C)c1nc(NCc2ccccc2)nc(NN=Cc2ccc(Cl)cc2Cl)n1 [Compound 224]	60.1	max.	

Compound	IC50 [µM]	Specificity	HBV + rRNA IC50 (μM)
COc1ccc(Nc2nc(NCc3cccc([N+](=O)[O-])c3)nc(NCc3cc(F)ccc3F)n2)cc1OC [Compound 225]	193	max.	
Cc1ccc(Nc2nc(NCc3ccccc3)nc(NN=Cc3cc(Cl)ccc3O)n2)cc1C [Compound 226]	84.4	5.0	
CC(=NNc1nc(Nc2ccccc2)nc(N2CCCC2)n1)c1ccc(F)cc1 [Compound 227]	12.8	max.	
Cc1ccc(Nc2nc(NCc3ccccc3)nc(NN=Cc3ccccc3F)n2)cc1C [Compound 228]	79.3	max.	
Cc1ccc(Nc2nc(NN=Cc3cccc([N+](=O)[O-])c3)nc(Nc3ccccc3)n2)c(C)c1 [Compound 229]	4.4	max.	
Brc1ccc(Nc2nc(NCc3ccccc3)nc(Nc3ccc(Br)cc3)n2)cc1 [Compound 230]	20.9	max.	
O=[N+]([O-])c1ccc(Nc2nc(NCc3ccccc3)nc(N3CCOCC3)n2)cc1 [Compound 231]	195	max.	
Oc1ccc(Br)cc1C=NNc1nc(Nc2cccc(Br)c2)nc(N2CCOCC2)n1 [Compound 232]	45.5	max.	
CNc1nc(NN=Cc2cc(Cl)ccc2O)nc(Nc2ccccc2)n1 [Compound 245]	8.1	max.	
Oc1ccc(Br)cc1C=NNc1nc(Nc2cccc(C(F)(F)F)c2)nc(N2CCOCC2)n1 [Compound 246]	5.6	max.	
FC(F)(F)c1cccc(Nc2nc(Nc3cccc(Cl)c3)nc(N3CCOCC3)n2)c1 [Compound 247]	6.7	max.	
Cc1ccc(Nc2nc(NCc3cc(F)ccc3F)nc(Nc3ccc([N+](=O)[O-])cc3)n2)cc1C [Compound 248]			inactive
Cc1ccc(Nc2nc(NN=Cc3ccc(Cl)cc3)nc(N3CCOCC3)n2)cc1 [Compound 249]	47.2	max.	
Cc1ccc(Nc2nc(NNC(=O)c3ccccc3O)nc(Oc3ccc([N+](=O)[O-])cc3)n2)cc1C [Compound 250]			inactive
Cc1ccc(Nc2nc(Nc3cccc(C(F)(F)F)c3)nc(N3CCOCC3)n2)cc1C [Compound 251]	45	max.	
COc1ccc(Nc2nc(NCCc3ccccc3)nc(N(C)C)n2)cc1OC [Compound 252]			inactive
CNc1nc(NN=Cc2ccccc2C(F)(F)F)nc(Nc2cccc(C(F)(F)F)c2)n1 [Compound 253]	11	59.9	
